Where “and” joins values, the source holds several entries; their conditions need not be identical. Identical values can stand only once.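 Five compound concentrations were applied to cells in 96-well plates for 48 hours; endpoints were derived by simple linear interpolation of the resulting dose-response curve. GI50 marks 50% less growth. Definition used: TGI = concentration required for complete inhibition of growth.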
Columns and labels:
Assay in all cases: NCI tumour cell line growth inhibition, 48 h
COLO 205 colon = test system: COLO 205 colon
HCT-15 colon = test system: HCT-15 colon
NCI-H226 lung = test system: NCI-H226 lung
SF-295 CNS = test system: SF-295 CNS
SK-MEL-5 melanoma = test system: SK-MEL-5 melanoma
SN12C renal = test system: SN12C renal
SNB-75 CNS = test system: SNB-75 CNS
U251 CNS = test system: U251 CNS
CCRF-CEM leukemia = test system: CCRF-CEM leukemia
LOX IMVI melanoma = test system: LOX IMVI melanoma

| SMILES | TGI (COLO 205 colon) | TGI (HCT-15 colon) | TGI (NCI-H226 lung) [µM] | TGI (SF-295 CNS) [µM] | TGI (SK-MEL-5 melanoma) [µM] | TGI (SN12C renal) [µM] | TGI (SNB-75 CNS) | TGI (U251 CNS) | GI50 (CCRF-CEM leukemia) [µM] | TGI (CCRF-CEM leukemia) [µM] | GI50 (COLO 205 colon) | GI50 (HCT-15 colon) | GI50 (LOX IMVI melanoma) [µM] | TGI (LOX IMVI melanoma) [µM] | GI50 (NCI-H226 lung) [µM] | GI50 (SF-295 CNS) [µM] | GI50 (SK-MEL-5 melanoma) [µM] | GI50 (SN12C renal) [µM] | GI50 (SNB-75 CNS) | GI50 (U251 CNS) |
| --- | --- | --- | --- | --- | --- | --- | --- | --- | --- | --- | --- | --- | --- | --- | --- | --- | --- | --- | --- | --- |
| OCCN(CO)CO | > 100 µM | > 100 µM | > 100 | > 100 | > 100 | > 100 | > 100 µM | > 100 µM | – | – | – | – | – | – | – | – | – | – | – | – |
| COc1ccc(/C=C/C(=O)c2cc3c(N)c(C(=O)Nc4ccc(OC)cc4)sc3nc2C)cc1 | 0.609 µM | > 50 µM | – | – | 4.03 | > 50 | 2.21 µM | > 30.9 µM | 0.567 | > 50 | 0.158 µM | 0.391 µM | 1.06 | 11.3 | 0.0872 | 0.0645 | 0.203 | 0.284 | 0.344 µM | 1.65 µM |
| Nc1ncc2ncn(C3CCC(CO)O3)c2n1 (configuration not stated) | > 100 µM | > 100 µM | > 100 | > 100 | > 100 | > 100 | > 100 µM | > 100 µM | – | > 100 | – | – | – | > 100 | – | – | – | – | – | – |
| C1=CC2CCC1CN2CCC1CNc2ccccc21 (configuration not stated) | – | – | > 100 | > 100 | – | > 100 | > 100 µM | > 100 µM | – | > 100 | – | – | – | > 100 | – | – | – | – | – | – |
| O=CN1N=C(c2cccc(Nc3ccnc4cc(Cl)ccc34)c2)CC1c1ccc(Cl)cc1 (configuration not stated) | 6.67 µM | > 100 µM | > 100 | 8.12 | 10.6 | > 100 | – | 20.7 µM | 2.34 | > 100 | 1.39 µM | 0.903 µM | 1.56 | 10.3 | > 100 | 1.06 | 1.86 | 3.86 | – | 1.29 µM |
| COc1ccc(-c2csc(Nc3cccc(-c4csc(C)n4)c3)n2)cc1 | > 26.1 µM | > 47.7 µM | 19.7 | > 11.5 | 7.85 | 7.96 | – | > 27.6 µM | – | – | 0.636 µM | 0.226 µM | 0.389 | 11.8 | 6.12 | 0.68 | 1.19 | 0.97 | – | 0.783 µM |
| Clc1ccc(CN2CCCN(Cc3ccc(Cl)cc3)C2c2cc3ccccc3c3ccccc23)cc1 | 40.3 µM | > 100 µM | > 100 | > 100 | 32.7 | > 100 | 78.5 µM | > 100 µM | – | – | – | – | – | > 100 | – | – | – | – | – | – |
| CCCCCCCCCCCCCCCC[n+]1ccccc1 | 0.702 µM and 1.85 µM | 2.64 µM and 3.61 µM | – | 1.42 | – | 1.9 | 1.72 µM and 2.78 µM | 1.36 µM and 1.92 µM | 0.281 | 1.33 | 0.255 µM and 0.495 µM | 1.1 µM and 1.09 µM | 0.242 | 1.09 | – | 0.311 | – | 0.563 | 0.528 µM and 0.609 µM | 0.326 µM and 0.535 µM |
| CCOC1Oc2ccc(C)cc2C(=O)/C1=C\Nc1ccc(S(N)(=O)=O)cc1 (configuration not stated) | 45.3 µM | > 50 µM | > 50 | 35.7 | 17.3 | 31.9 | > 50 µM | > 50 µM | – | – | 16.8 µM | 12.5 µM | 13.7 | > 50 | 22.3 | 12.6 | 7.79 | 11.6 | 18.5 µM | 12.9 µM |
| COc1cccc(/C=N\NC(=O)C(C)SC(C)C(=O)N/N=C/c2cccc(OC)c2)c1 (configuration not stated) | > 63.9 µM | > 100 µM | 47.5 | > 88.6 | > 100 | 42.8 | 33.2 µM | 35.9 µM | – | > 93.5 | – | – | – | – | – | – | – | – | – | – |
| O=C(O)CCCCC1CCSS1 (configuration not stated) | > 100 µM | > 100 µM | > 100 | > 100 | > 100 | – | > 100 µM | > 100 µM | – | > 100 | – | – | – | > 100 | – | – | – | – | – | – |
| COc1cc(-c2nn(-c3cccc(NC(=O)CCNc4ccc(N5CCOCC5)cc4)c3)cc2-c2ccncc2)ccc1Cl | – | > 100 µM | 27.8 | 26 | 4.89 | > 100 | > 100 µM | 63 µM | 2.95 | > 100 | – | 2.35 µM | 2.6 | 13 | 2.89 | 2.09 | 1.95 | 3.19 | 4.22 µM | 2.52 µM |
| COc1cc(-c2nn(-c3cccc(NC(=O)CCN4CCN(c5ccccc5)CC4)c3)cc2-c2ccncc2)ccc1Cl | – | > 100 µM | > 100 | 18 | 5.36 | > 100 | > 100 µM | > 100 µM | 3.38 | > 100 | – | 2.62 µM | 2.02 | 5.47 | 4.13 | 2.41 | 2.19 | 3.72 | 4.13 µM | 3.13 µM |
| N#CCc1cccc(CC#N)c1Br | > 100 µM | > 100 µM | > 100 | > 100 | – | > 100 | > 100 µM | > 100 µM | – | > 100 | – | – | – | > 100 | – | – | – | – | – | – |
| Cc1cc(C)nc(NS(=O)(=O)c2ccc(Nc3c4ccccc4nc4c(C(=O)NCCN(C)C)cccc34)cc2)n1 | – | 19.3 µM | 6.21 | 14.9 | 18.8 | 17.3 | 24.4 µM | 18.1 µM | – | 22.6 | – | – | – | 11.7 | – | – | – | – | – | – |
| C#C[C@]1(O)CC[C@H]2[C@@H]3CC=C4c5nc(N)sc5CC[C@]4(C)[C@H]3CC[C@@]21C | 15.8 µM | 17.3 µM | 7.56 | 4.05 | 3.63 | 30.6 | – | 16.4 µM | 2.79 | 14.9 | 3.66 µM | 3.2 µM | 1.92 | 4.04 | 2.76 | 1.98 | 1.91 | 10.1 | – | 2.47 µM |
| COc1cc(OC)c2c(=O)c3cccc([N+](=O)[O-])c3n(C)c2c1 | > 100 µM | > 100 µM | – | > 100 | > 100 | > 100 | > 100 µM | > 100 µM | – | > 100 | – | – | – | > 100 | – | – | – | – | – | – |
| O=C(O)c1ccccc1NCn1c(=S)sc2ccccc21 | 56.7 µM | > 100 µM | – | > 100 | – | > 100 | > 100 µM | > 100 µM | – | 52.2 | – | – | – | 43.4 | – | – | – | – | – | – |

— PubChem BioAssay (NCI)
